Test results published in article PMC10096453, “One-Pot Synthesis and Evaluation of Antioxidative Stress and Anticancer Properties of an Active Chromone Derivative” (Molecules, 2023).
Where two headings read alike, the source gives them in different places.

Tests used:
[1] = MTT cytotoxicity assay, HACAT cells; assay type: cell-based; settings: human; for viability at 24 h, 100 µM: read-out: % Viability ± SD (at 100 μM) HACAT 24 h; for viability at 48 h, 100 µM: read-out: % Viability ± SD (at 100 μM) HACAT 48 h
Procedure: (§1) HEK293, HACAT, and HeLa cells were grown in modified Eagles’ minimum essential medium (EMEM, Gibco) with 10% fetal bovine serum (FBS, Gibco), 1% of 100 U/mL streptomycin and 100 U/mL penicillin (Gibco). Cells were seeded in culture flasks and maintained in an incubator at 37 °C in a humidified atmosphere with 5% CO2. After reaching 80–90% of confluence, cells were detached by incubation with 0.25% trypsin-0.2% EDTA (Gibco) for 5 min and plated for experiments.
(§2) This study examined cell cultures of HEK293, HACAT, and HeLa cells. The cytotoxicity of the test samples was carried out by the MTT (3-(4,5-dimethylthiazol-2-yl)-2,5-diphenyltetrazolium bromide) assay. The cells were seeded in 96-well microliter plates (2.0 × 10^4 cells/well). Stock solutions of the test compounds were prepared in DMSO. After 24 h, cells were treated with different concentrations of samples and diluted with media to obtain the final desired concentration. The treated cells were then incubated at 37 °C and 5% CO2 for 24 and 48 h. After incubation, the medium was replaced with 0.05% w/v of MTT solution in PBS and further incubated for 3 h. The solution was then discarded and DMSO was added to dissolve the formed formazan crystals. Each well’s absorbance (A) was measured at 570 nm using a microplate reader (FLUOstar Omega^TM, BMG Labtech, Ortenberg, Germany). All experiments were carried out in triplicate and repeated for at least three experiments.

[2] = ABTS radical cation scavenging assay; assay type: biochemical
Text: (§3) Three in vitro antioxidant assays (DPPH, FRAP, and ABTS) were utilized to evaluate the antioxidant property of the synthesized compounds. The DPPH (α, α-diphenyl-β-picrylhydrazyl) assay is the well-known approach to determine antioxidant activity using a stable free radical DPPH, measure the absorbance change, and calculate the absorbance change in the percentage of scavenging activity. […] For example, the ferric-tripyridyltriazine (Fe^3+-TPTZ, colorless) complex is reduced to ferrous tripyridyltriazine (Fe^2+-TPTZ) at low pH and introduces a blue color with maximum absorption at 593 nm. The change in absorbance is related to antioxidant activity. However, a significant limitation of these in vitro tests is the non-physiological measurement conditions (no enzymatic condition and no transition metal ion chelating activity); therefore, the results obtained may not reflect the antioxidant activity of the source material under the biological conditions that exist in humans and animals. The ABTS assay involves a more drastic radical that is chemically produced. The use of ABTS for antioxidant activity determination of hydrophilic and lipophilic pure compounds has attracted interest due to its solubility in organic and aqueous media and stability in a wide pH range [31].
The ABTS assay was prepared by reaction of 5 mL of a 7 mM aqueous ABTS (2,2′-azino-bis (3-ethylbenzthiazoline-6-sulphonic acid) solution and 2.45 mM potassium persulfate solution (K2S2O8). After preparation and storage in the dark for 16 h, the radical cation solution was further diluted in ethanol to absorb about 0.7 at 734 nm. Trolox and test sample solutions were prepared in stock solution with DMSO and diluted with ethanol. A solution of 100 μL of the sample was mixed with 100 μL of the ABTS reagent in a 96-well plate. The mixture was shaken in a dark place for 10 min and incubated at 37 °C for 20 min, and the absorbance was determined at 734 nm. Absorbance determinations were recorded immediately and not more than 1 h after adding the reagent. The solution without the sample was used as a blank. All the determinations were made in triplicate. The sample’s scavenging percentage was calculated from this equation: scavenging percentage = (Absorbance control − Absorbance sample) × 100/Absorbance control. EC50 values were calculated from the relationship curve of %scavenging versus sample concentration.

[3] = MTT cytotoxicity assay, HEK293 cells; assay type: cell-based; settings: human, HEK293 cells, 100 μM; for viability at 24 h, 100 µM: read-out: % Viability ± SD (at 100 μM) HEK293 24 h; for viability at 48 h, 100 µM: read-out: % Viability ± SD (at 100 μM) HEK293 48 h
Procedure: as §1, §2

HeLa cell = assay: MTT anticancer activity assay, HeLa cells; assay type: cell-based
Procedure: as §1, §2

[4] = DPPH radical scavenging assay; assay type: biochemical; design: DPPH517nm % SA ± SD: dose or concentration left out as unconfirmed; settings: for DPPH517nm % SA ± SD: mean of three measurements; for EC50: read-out: DPPH517nm EC50 ± SD
Text: as §3
The DPPH method was followed and modified from a previous study. Trolox was used as a reference. The DPPH stock solution at a concentration of 0.625 mM was prepared in 50% ethanol and kept at 4 °C in the dark. On the day of the experiment, 0.208 mM fresh DPPH working solution was freshly prepared by further diluting with 50% ethanol. […] Each reaction was carried out in a 96-well plate, and 100 μL of test preparation and DPPH solution were added. The 96-well plate was then shaken well for 10 min and kept in the dark at room temperature for 20 min, and the absorbance was recorded at 515–517 nm. According to the method described, delocalization also results in a deep violet color and is quantified as a percentage of scavenging activity. % scavenging activity (SA) = 100 × (Asample − Ablank)/(Acontrol − Ablank)(1) where Acontrol and Asample are the absorbances of the test DPPH without and with a sample, respectively. Ablank is the absorbance of the solvent used. The EC50 values were calculated from the relationship curve of %SA versus sample concentration. The experiment was carried out at least in triplicate.

[5] = FRAP (ferric reducing antioxidant power) assay; assay type: biochemical; settings: Trolox equivalent
Text: as §3
The FRAP assay is a method for assessing antioxidant power. Briefly, the FRAP reagent was prepared from acetate buffer pH 3.6, 10 mM TPTZ solution in 40 mM HCl and 20 mM FeCl3.6 H2O in relative proportions of 10:1:1, v/v, respectively. The FRAP reagent was freshly prepared daily. A solution of 5 μL of the sample (3–300 μM, approx.) was mixed with 180 μL of the FRAP reagent in a 96-well plate. The mixture was shaken in the dark for 10 min and incubated at 37 °C for 20 min, and the absorbance was determined at 593 nm. The solution without the sample was used as a blank. All determinations were made in triplicate. Trolox was used as a standard antioxidant and plot the calibration curve between absorbance and concentration. Quercetin was applied as the reference compound. The FRAP values were calculated by comparing the absorbance change in the test sample and represented in μM of Trolox equivalent per μM of sample.

HeLa cells = assay: Cell cycle analysis by flow cytometry; assay type: cell-based; settings: 24 h, 2f, 2j, quercetin at IC50, paclitaxel 5 μM
Procedure: The paclitaxel (5 μM) was performed as the positive control.
The treatment of HeLa cells and compounds was the same as in the apoptosis protocol. The cells were harvested for 200 μL and centrifuged at 600× g for 5 min and washed with PBS. The mixing cells were slowly added 200 μL of ice-cold 70% ethanol and incubated for at least 3 h at −20 °C. Cells were centrifuged and washed with PBS. Finally, cells were stained with 200 μL of Muse® cell cycle reagent and incubated at room temperature for 30 min in the dark. The cell was analyzed by flow cytometry (Guava Muse Cell Analyzer, Luminex, Austin, TX, USA).

[6] = Homo sapiens, 24 h, read-out: % Viability ± SD (at 100 μM) HeLa 24 h
[7] = Homo sapiens, 48 h, read-out: % Viability ± SD (at 100 μM) HeLa 48 h

| Compound | viability at 24 h, 100 µM [1] [%] | viability at 48 h, 100 µM [1] [%] | ABTS734nm % Scavenging at 500 µM [2] [%] | melting point [°C] | viability at 24 h, 100 µM [3] [%] | viability at 48 h, 100 µM [3] [%] | viability at 100 µM (HeLa cell; [6]) [%] | viability at 100 µM (HeLa cell; [7]) [%] | DPPH517nm % SA ± SD [4] [%] | FRAP593nm Value ± SD (TE) [5] | IC50 (HeLa cell; 24 h) [µM] | Anticancer activity on cervical cancer cells (HeLa cell; HeLa, 24 h) | IC50 (HeLa cell; Homo sapiens, HeLa, 24 h) [µM] | EC50 [4] [µM] | EC50 ([2]; read-out: ABTS734nm EC50 ± SD) [µM] | Cell cycle phase arrest (HeLa cells) | Cell population in G0/G1 phase (HeLa cells) [%] | Cell population in G2/M phase (HeLa cells) [%] | Cell population in S phase (HeLa cells) [%] |
| --- | --- | --- | --- | --- | --- | --- | --- | --- | --- | --- | --- | --- | --- | --- | --- | --- | --- | --- | --- |
| O=C(c1ccccc1)c1c(-c2ccccc2)oc2cccc(O)c2c1=O [2a, 3-Benzoyl-5-hydroxy-2-phenyl-4H-chromen-4-one] | 63.8 ± 3.36 | 88.5 ± 6.86 | 10.93 ± 1.44 | 156 to 158 | 111 ± 6.37 | 103 ± 6.05 | 91.9 ± 2.06 | 58.8 ± 2.02 | 2.23 ± 1.99 | 0.02 ± 0.004 µM Trolox/1 µM of Synthesized Compounds |  |  |  |  |  |  |  |  |  |
| O=C(c1ccccc1)c1c(-c2ccccc2)oc2ccc(O)cc2c1=O [2b, 3-Benzoyl-6-hydroxy-2-phenyl-4H-chromen-4-one] | 75.7 ± 3.38 | 74.9 ± 1.55 | 35.99 ± 1.32 | 201 to 203.5 | 105 ± 2.7 | 72.4 ± 8.55 | 40.9 ± 0.41 | 24.8 ± 1.05 | 5.32 ± 2.43 | 0.02 ± 0.003 µM Trolox/1 µM of Synthesized Compounds | 95.7 ± 1.16 | contained anticancer activity | 95.7 |  |  |  |  |  |  |
| COc1ccc2oc(-c3ccccc3)c(C(=O)c3ccccc3)c(=O)c2c1 [2c, 3-Benzoyl-6-methoxy-2-phenyl-4H-chromen-4-one] | 62.3 ± 3.04 | 60.4 ± 0.73 | 13.16 ± 0.78 | 194 to 196 | 72.5 ± 6.46 | 74 ± 1.32 | 60.67 ± 0.57 | 82.12 ± 0.11 | 5.88 ± 2.65 | 0.07 ± 0.028 µM Trolox/1 µM of Synthesized Compounds |  |  |  |  |  |  |  |  |  |
| O=C(c1ccccc1)c1c(-c2ccccc2)oc2cc(O)ccc2c1=O [2d, 3-Benzoyl-7-hydroxy-2-phenyl-4H-chromen-4-one] | 77.8 ± 6.93 | 72.5 ± 3.41 | 27.59 ± 2.46 | 270 to 271 | 88.7 ± 1.33 | 87.8 ± 1.8 | 85.17 ± 0.79 | 42.36 ± 0.09 | 15.85 ± 4.61 | 0.02 ± 0.003 µM Trolox/1 µM of Synthesized Compounds |  | contained anticancer activity | 166.9 ± 0.49 | > 750 |  |  |  |  |  |
| O=C(c1ccccc1)c1c(-c2ccccc2)oc2cc(O)cc(O)c2c1=O [2e, 3-Benzoyl-5,7-dihydroxy-2-phenyl-4H-chromen-4-one] | 79.7 ± 3.26 | 69.1 ± 3.07 | 80.67 ± 0.30 | 196 to 197 | 99.7 ± 2.41 | 93.9 ± 5.34 | 76 ± 1.52 | 26.5 ± 1.13 | 46.30 ± 3.61 | 0.02 ± 0.002 µM Trolox/1 µM of Synthesized Compounds |  | contained anticancer activity | 108 ± 4.04 | > 750 | 158 ± 10.9 |  |  |  |  |
| COc1cccc(C(=O)c2c(-c3cccc(OC)c3)oc3cc(O)ccc3c2=O)c1 [2g, 7-Hydroxy-3-(3-methoxybenzoyl)-2-(3-methoxyphenyl)-4H-chromen-4-one] | 81.5 ± 5.17 | 78.4 ± 5.44 | 11.52 ± 3.56 | 253 to 254 | 79.1 ± 0.9 | 76.7 ± 1.16 |  | 46.3 ± 1.14 | 18.32 ± 0.40 | 0.02 ± 0.008 µM Trolox/1 µM of Synthesized Compounds |  | contained anticancer activity | 172.7 ± 1.66 |  |  |  |  |  |  |
| COc1ccc(C(=O)c2c(-c3ccc(OC)cc3)oc3cc(O)ccc3c2=O)cc1 [2h, 7-hydroxy-3-(4-methoxybenzoyl)-2-(4-methoxyphenyl)-4H-chromen-4-one] | 75.2 ± 7.39 | 71.8 ± 3.27 | 6.55 ± 4.19 | 300 to 301 | 77.2 ± 1.93 | 73.1 ± 0.79 | 84.9 ± 2.55 | 64.2 ± 0.76 | 12.57 ± 6.18 | 0.06 ± 0.024 µM Trolox/1 µM of Synthesized Compounds |  |  |  |  |  |  |  |  |  |
| CC(=O)O[C@H]1C(=O)[C@@]2(C)[C@H]([C@H](OC(=O)c3ccccc3)[C@]3(O)C[C@H](OC(=O)[C@H](O)[C@@H](NC(=O)c4ccccc4)c4ccccc4)C(C)=C1C3(C)C)[C@]1(OC(C)=O)CO[C@@H]1C[C@@H]2O [Paclitaxel, paclitaxel, reference compound] |  |  |  |  |  |  |  |  |  |  |  |  |  |  |  | potent phase arrest of G2/M | 5.89 ± 0.18 | 89.12 ± 1.14 | 4.99 ± 0.96 |
